Reference: PubChem BioAssay (NCI)
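How tested: cells in 96-well plates exposed to compound for 48 hours at five concentrations. TGI denotes the concentration required for complete inhibition of growth.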

Columns and labels:
Assay in all cases: inhibition of tumour cell growth, NCI panel, 48 h
SF-295 CNS = tested on: SF-295 CNS
M14 melanoma = tested on: M14 melanoma
LXFL 529 NSCLC = tested on: LXFL 529 NSCLC
NCI-H23 lung = tested on: NCI-H23 lung
SW-620 colon = tested on: SW-620 colon
COLO 205 colon = tested on: COLO 205 colon
SF-539 CNS = tested on: SF-539 CNS
ACHN renal = tested on: ACHN renal
M19-MEL melanoma = tested on: M19-MEL melanoma
CAKI-1 renal = tested on: CAKI-1 renal
NCI-H460 lung = tested on: NCI-H460 lung
HOP-92 NSCLC = tested on: HOP-92 NSCLC
DMS 273 small cell lung = tested on: DMS 273 small cell lung
UACC-257 melanoma = tested on: UACC-257 melanoma
UO-31 renal = tested on: UO-31 renal
KM12 colon = tested on: KM12 colon
K-562 leukemia = tested on: K-562 leukemia
HT29 colon = tested on: HT29 colon
RXF 393 renal = tested on: RXF 393 renal
TK-10 renal = tested on: TK-10 renal
UACC-62 melanoma = tested on: UACC-62 melanoma
SK-MEL-2 melanoma = tested on: SK-MEL-2 melanoma
HL-60(TB) leukemia = tested on: HL-60(TB) leukemia
SF-268 CNS = tested on: SF-268 CNS
HOP-18 NSCLC = tested on: HOP-18 NSCLC
KM20L2 colon = tested on: KM20L2 colon
SN12C renal = tested on: SN12C renal
SNB-78 CNS = tested on: SNB-78 CNS
786-0 renal = tested on: 786-0 renal
MALME-3M melanoma = tested on: MALME-3M melanoma
OVCAR-5 ovarian = tested on: OVCAR-5 ovarian
SK-MEL-5 melanoma = tested on: SK-MEL-5 melanoma
DLD-1 colon = tested on: DLD-1 colon
OVCAR-4 ovarian = tested on: OVCAR-4 ovarian
HCT-15 colon = tested on: HCT-15 colon
SK-OV-3 ovarian = tested on: SK-OV-3 ovarian
SR leukemia = tested on: SR leukemia
CCRF-CEM leukemia = tested on: CCRF-CEM leukemia
IGROV1 ovarian = tested on: IGROV1 ovarian
MOLT-4 leukemia = tested on: MOLT-4 leukemia
DMS 114 small cell lung = tested on: DMS 114 small cell lung
HCT-116 colon = tested on: HCT-116 colon
NCI-H226 lung = tested on: NCI-H226 lung
OVCAR-3 ovarian = tested on: OVCAR-3 ovarian
HOP-62 NSCLC = tested on: HOP-62 NSCLC
SK-MEL-28 melanoma = tested on: SK-MEL-28 melanoma
LOX IMVI melanoma = tested on: LOX IMVI melanoma
RPMI-8226 leukemia = tested on: RPMI-8226 leukemia
SNB-19 CNS = tested on: SNB-19 CNS
SNB-75 CNS = tested on: SNB-75 CNS
A498 renal = tested on: A498 renal
A549 NSCLC = tested on: A549 NSCLC
OVCAR-8 ovarian = tested on: OVCAR-8 ovarian
U251 CNS = tested on: U251 CNS
HCC-2998 colon = tested on: HCC-2998 colon
NCI-H522 lung = tested on: NCI-H522 lung
EKVX NSCLC = tested on: EKVX NSCLC
MDA-MB-231 breast = tested on: MDA-MB-231 breast
HS 578T breast = tested on: HS 578T breast
DU-145 prostate = tested on: DU-145 prostate
T-47D breast = tested on: T-47D breast
NCI/ADR-RES ovarian = tested on: NCI/ADR-RES ovarian
MDA-MB-435 = tested on: MDA-MB-435
PC-3 prostate = tested on: PC-3 prostate
BT-549 breast = tested on: BT-549 breast
MCF7 breast = tested on: MCF7 breast
MDA-N = tested on: MDA-N

Structure (SMILES): COC(=O)NC(=O)c1cn(C2CCCCC2)c(=O)[nH]c1=O
- TGI (SF-295 CNS): > 100 µM
- TGI (M14 melanoma): > 100 µM
- TGI (LXFL 529 NSCLC): > 100 µM
- TGI (NCI-H23 lung): > 100 µM
- TGI (SW-620 colon): > 100 µM
- TGI (COLO 205 colon): > 100 µM
- TGI (SF-539 CNS): > 100 µM
- TGI (ACHN renal): > 100 µM
- TGI (M19-MEL melanoma): > 100 µM
- TGI (CAKI-1 renal): > 100 µM
- TGI (NCI-H460 lung): > 100 µM
- TGI (HOP-92 NSCLC): > 100 µM
- TGI (DMS 273 small cell lung): > 100 µM
- TGI (UACC-257 melanoma): > 100 µM
- TGI (UO-31 renal): > 100 µM
- TGI (KM12 colon): > 100 µM
- TGI (K-562 leukemia): > 100 µM
- TGI (HT29 colon): > 100 µM
- TGI (RXF 393 renal): > 100 µM
- TGI (TK-10 renal): > 100 µM
- TGI (UACC-62 melanoma): > 100 µM
- TGI (SK-MEL-2 melanoma): > 100 µM
- TGI (HL-60(TB) leukemia): > 100 µM
- TGI (SF-268 CNS): > 100 µM
- TGI (HOP-18 NSCLC): > 100 µM
- TGI (KM20L2 colon): > 100 µM
- TGI (SN12C renal): > 100 µM
- TGI (SNB-78 CNS): > 100 µM
- TGI (786-0 renal): > 100 µM
- TGI (MALME-3M melanoma): > 100 µM
- TGI (OVCAR-5 ovarian): > 100 µM
- TGI (SK-MEL-5 melanoma): > 100 µM
- TGI (DLD-1 colon): > 100 µM
- TGI (OVCAR-4 ovarian): > 100 µM
- TGI (HCT-15 colon): > 100 µM
- TGI (SK-OV-3 ovarian): > 100 µM
- TGI (SR leukemia): > 100 µM
- TGI (CCRF-CEM leukemia): > 100 µM
- TGI (IGROV1 ovarian): > 100 µM
- TGI (MOLT-4 leukemia): > 100 µM
- TGI (DMS 114 small cell lung): > 100 µM
- TGI (HCT-116 colon): > 100 µM
- TGI (NCI-H226 lung): > 100 µM
- TGI (OVCAR-3 ovarian): > 100 µM
- TGI (HOP-62 NSCLC): > 100 µM
- TGI (SK-MEL-28 melanoma): > 100 µM
- TGI (LOX IMVI melanoma): > 100 µM
- TGI (RPMI-8226 leukemia): > 100 µM
- TGI (SNB-19 CNS): > 100 µM
- TGI (SNB-75 CNS): > 100 µM
- TGI (A498 renal): > 100 µM
- TGI (A549 NSCLC): > 100 µM
- TGI (OVCAR-8 ovarian): > 100 µM
- TGI (U251 CNS): > 100 µM
- TGI (HCC-2998 colon): > 100 µM
- TGI (NCI-H522 lung): > 100 µM

Structure (SMILES): COc1ccc(/C=C2\CCC(Cc3ccccc3)(CN(C)C)C2=O)cc1 (stereo not drawn)
- TGI (SF-295 CNS): > 100 µM
- TGI (M14 melanoma): 66.2 µM
- TGI (EKVX NSCLC): > 100 µM
- TGI (LXFL 529 NSCLC): > 100 µM
- TGI (NCI-H23 lung): > 100 µM
- TGI (SW-620 colon): > 73.3 µM
- TGI (COLO 205 colon): > 74.8 µM
- TGI (MDA-MB-231 breast): > 100 µM
- TGI (SF-539 CNS): > 100 µM
- TGI (ACHN renal): > 100 µM
- TGI (M19-MEL melanoma): 70.7 µM
- TGI (CAKI-1 renal): > 100 µM
- TGI (NCI-H460 lung): > 100 µM
- TGI (HOP-92 NSCLC): > 100 µM
- TGI (DMS 273 small cell lung): 32.5 µM
- TGI (UACC-257 melanoma): 66.2 µM
- TGI (UO-31 renal): > 100 µM
- TGI (KM12 colon): > 100 µM
- TGI (K-562 leukemia): 78 µM
- TGI (HT29 colon): > 87.8 µM
- TGI (RXF 393 renal): > 72.9 µM
- TGI (TK-10 renal): > 100 µM
- TGI (UACC-62 melanoma): > 76.9 µM
- TGI (SK-MEL-2 melanoma): > 100 µM
- TGI (HL-60(TB) leukemia): 55.3 µM
- TGI (SF-268 CNS): > 100 µM
- TGI (HOP-18 NSCLC): > 100 µM
- TGI (KM20L2 colon): 59.6 µM
- TGI (SN12C renal): > 100 µM
- TGI (SNB-78 CNS): > 100 µM
- TGI (786-0 renal): > 100 µM
- TGI (MALME-3M melanoma): > 100 µM
- TGI (OVCAR-5 ovarian): > 100 µM
- TGI (HS 578T breast): > 100 µM
- TGI (DU-145 prostate): > 100 µM
- TGI (SK-MEL-5 melanoma): 44.8 µM
- TGI (DLD-1 colon): > 100 µM
- TGI (T-47D breast): > 100 µM
- TGI (OVCAR-4 ovarian): > 100 µM
- TGI (HCT-15 colon): > 70.7 µM
- TGI (SK-OV-3 ovarian): > 100 µM
- TGI (SR leukemia): 54 µM
- TGI (CCRF-CEM leukemia): 72.3 µM
- TGI (IGROV1 ovarian): > 100 µM
- TGI (MOLT-4 leukemia): > 81.2 µM
- TGI (NCI/ADR-RES ovarian): > 100 µM
- TGI (DMS 114 small cell lung): 48.6 µM
- TGI (HCT-116 colon): > 100 µM
- TGI (MDA-MB-435): > 100 µM
- TGI (NCI-H226 lung): > 96.3 µM
- TGI (PC-3 prostate): > 100 µM
- TGI (OVCAR-3 ovarian): > 100 µM
- TGI (BT-549 breast): > 100 µM
- TGI (MCF7 breast): > 100 µM
- TGI (HOP-62 NSCLC): > 100 µM
- TGI (MDA-N): > 100 µM
- TGI (SK-MEL-28 melanoma): > 100 µM
- TGI (LOX IMVI melanoma): 57.5 µM
- TGI (RPMI-8226 leukemia): 62.9 µM
- TGI (SNB-19 CNS): > 100 µM
- TGI (SNB-75 CNS): > 100 µM
- TGI (A498 renal): > 100 µM
- TGI (A549 NSCLC): > 100 µM
- TGI (OVCAR-8 ovarian): > 100 µM
- TGI (U251 CNS): > 100 µM
- TGI (HCC-2998 colon): > 100 µM
- TGI (NCI-H522 lung): > 71.9 µM
